Measurements from ChEMBL document CHEMBL1134391, “Design, synthesis, and structural analysis of influenza neuraminidase inhibitors containing pyrrolidine cores” (J Med Chem, 2001).

Legend:
[1] = system: influenza virus b; assay: Inhibitory activity was determined against Neuraminidase B/Memphis at 1 mM concentration
[2] = system: influenza virus b; assay: Inhibitory activity was determined against Neuraminidase B/Memphis at 0.5 mM concentration
[3] = biological target: Neuraminidase (Influenza B virus (strain B/Lee/1940), UniProt P03474); assay: Inhibitory activity was determined against Neuraminidase B/Memphis
Neuraminidase, sequence (P03474 whole entry): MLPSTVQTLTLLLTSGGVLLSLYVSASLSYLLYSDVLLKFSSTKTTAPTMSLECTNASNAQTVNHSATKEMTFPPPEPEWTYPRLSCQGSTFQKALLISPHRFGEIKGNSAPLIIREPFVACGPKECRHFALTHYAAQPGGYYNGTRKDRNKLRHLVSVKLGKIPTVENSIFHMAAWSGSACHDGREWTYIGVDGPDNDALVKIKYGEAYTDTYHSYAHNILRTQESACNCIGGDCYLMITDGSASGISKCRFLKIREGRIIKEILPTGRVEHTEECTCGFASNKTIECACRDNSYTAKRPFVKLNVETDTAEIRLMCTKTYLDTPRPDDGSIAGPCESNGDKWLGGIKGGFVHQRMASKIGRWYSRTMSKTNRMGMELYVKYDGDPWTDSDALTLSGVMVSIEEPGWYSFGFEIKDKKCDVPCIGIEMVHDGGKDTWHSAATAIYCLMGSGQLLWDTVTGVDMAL

SMILES	IC50 [3] [µM]	also measured
CCC(=O)NC[C@H]1[C@H](N)[C@H](C(=O)O)CN1C(=O)N(CC)C(C)C		inhibition [1]: 26%
CCN(C(=O)N1C[C@@H](C(=O)O)[C@@H](N)[C@@H]1CNS(C)(=O)=O)C(C)C		inhibition [2]: 38%
CCN(C(=O)N1C[C@@H](C(=O)O)[C@@H](N)[C@@H]1CNC(C)=O)C(C)C	340	
CCN(C(=O)N1C[C@@H](C(=O)O)[C@@H](N)[C@@H]1CNC(=O)C(F)(F)F)C(C)C [A-192558]	8	
